Data: ChEMBL document CHEMBL4842340, “Development of Cagrilintide, a Long-Acting Amylin Analogue” (J Med Chem, 2021)
In brackets after ≈: the same amount, converted by molar mass. *1 amine or outer side, *2 acyl side, *3 side chain or, on linkers, in order; H or OH if unused. Where a SMILES comes first, the peptide text is derived from it. Bridges are numbered along the chain shown (N, C = ends). The star is where a group is joined. C20 diacid = O=C(O)CCCCCCCCCCCCCCCCCCC(=O)*; γGlu = O=C(O)[C@H](CCC(=O)[*:2])N[*:1]

Columns and labels:
[1] = Agonist activity at human AMY3R (CT+RAMP3) expressed in Hollex1 cells incubated for 3 hrs by luminescence assay; format: cell-based; conditions: Hollex1, 3 h
[2] = Agonist activity at human calcitonin receptor expressed in BHK570 cells assessed as increase in intracellular cAMP concentration incubated for 3 hrs in absence of albumin by CRE luciferase reporter gene assay; format: cell-based; conditions: BHK570, 3 h
Homo sapiens [3] = organism: Homo sapiens; test: Ratio of EC50 for human calcitonin receptor expressed in BHK570 cells to EC50 for human AMY3R (CT+RAMP3) expressed in Hollex1 cells; format: cell-based
[4] = Agonist activity at rat AMY3R (CT+RAMP3) expressed in tk-ts13 cells assessed as increase in intracellular cAMP level incuabted for 25 mins by CRE luciferase reporter gene assay; format: cell-based; conditions: tk-ts13, 25 min
[5] = Agonist activity at rat calcitonin receptor expressed in BHK-13 cells assessed as increase in intracellular cAMP concentration incubated for 25 mins by CRE luciferase reporter gene assay; format: cell-based; conditions: BHK-13, 25 min
Rattus norvegicus [6] = organism: Rattus norvegicus; test: Ratio of EC50 for rat calcitonin receptor expressed in BHK-13 cells to EC50 for rat AMY3R (CT+RAMP3) expressed in tk-ts13 cells; format: cell-based
[7] = Solubility of the compound in lactate at pH 3 by UPLC analysis; format: physicochemical; conditions: lactate buffer
[8] = Solubility of the compound in lactate at pH 4 by UPLC analysis; format: physicochemical; conditions: lactate buffer
[9] = Solubility of the compound in lactate at pH 5 by UPLC analysis; format: physicochemical; conditions: lactate buffer
[10] = Solubility of the compound in bis-tris propane at pH 6 by UPLC analysis; format: physicochemical; conditions: bis-tris propane buffer
[11] = Solubility of the compound in bis-tris propane at pH 6.5 by UPLC analysis; format: physicochemical; conditions: bis-tris propane buffer
[12] = Solubility of the compound in bis-tris propane at pH 7 by UPLC analysis; format: physicochemical; conditions: bis-tris propane buffer
[13] = Solubility of the compound in bis-tris propane at pH 7.5 by UPLC analysis; format: physicochemical; conditions: bis-tris propane buffer
[14] = Solubility of the compound in bis-tris propane at pH 8 by UPLC analysis; format: physicochemical; conditions: bis-tris propane buffer
Insulin (Homo sapiens) [15] = biological target: Insulin (Homo sapiens) (UniProt P01308); test: Effect on insulin (unknown origin) amyloid fibril formation assessed as lag time in glycyl-glycine buffer at pH 4 measured after 45 hrs by thioflavin-T fluorescence assay
Chain of Insulin (Homo sapiens) (P01308 whole entry): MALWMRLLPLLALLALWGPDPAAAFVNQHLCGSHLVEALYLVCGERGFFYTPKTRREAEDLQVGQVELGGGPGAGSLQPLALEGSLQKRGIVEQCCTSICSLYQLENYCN

Insulin (Homo sapiens) [16] = biological target: Insulin (Homo sapiens) (UniProt P01308); test: Effect on insulin (unknown origin) amyloid fibril formation assessed as peptide recovery in glycyl-glycine buffer at pH 4 measured after 45 hrs by thioflavin-T fluorescence assay relative to control; design: concentration or dose not given beside the values
Insulin (Homo sapiens) [17] = biological target: Insulin (Homo sapiens) (UniProt P01308); test: Effect on insulin (unknown origin) amyloid fibril formation assessed as lag time in HEPES buffer at pH 7.5 measured after 45 hrs by thioflavin-T fluorescence assay
Rattus norvegicus [18] = test: Reduction in food intake in Sprague-Dawley rat at 3 nmol/kg, sc administered as single dose measured upto 24 hrs relative to control; format: functional; design: scale not given: the % may be the effect or the level left; conditions: time hrs <=24
Rattus norvegicus [19] = test: Reduction in food intake in Sprague-Dawley rat at 3 nmol/kg, sc administered as single dose measured after 24 to 48 hrs relative to control; format: functional; design: scale not given: the % may be the effect or the level left; conditions: time 24-48 hrs
Insulin (Homo sapiens) [20] = biological target: Insulin (Homo sapiens) (UniProt P01308); test: Effect on insulin (unknown origin) amyloid fibril formation assessed as peptide recovery in HEPES buffer at pH 7.5 measured after 45 hrs by thioflavin-T fluorescence assay relative to control
[21] = Displacement of [125I]-amylin from human AMY3R (CTR+RAMP3) expressed in BHK-13 cells measured after 120 mins by scintillation proximity assay; format: cell-based
[22] = Displacement of [125I]-calcitonin from human calcitonin receptor expressed in tk-ts 13 cells measured after 120 mins by scintillation proximity assay; format: cell-based; conditions: tk-ts13
Homo sapiens [23] = organism: Homo sapiens; test: Ratio of IC50 for displacement of [125I]-calcitonin from human calcitonin receptor expressed in tk-ts 13 cells to IC50 for displacement of [125I]-amylin from human AMY3R (CTR+RAMP3) expressed in BHK-13 cells; format: cell-based
[24] = Displacement of [125I]-amylin from rat AMY3R (CTR+RAMP3) expressed in BHK-13 cells measured after 120 mins by scintillation proximity assay; format: cell-based
[25] = Displacement of [125I]-calcitonin from rat calcitonin receptor expressed in tk-ts 13 cells measured after 120 mins by scintillation proximity assay; format: cell-based; conditions: tk-ts13
Rattus norvegicus [26] = organism: Rattus norvegicus; test: Ratio of IC50 for displacement of [125I]-calcitonin from rat calcitonin receptor expressed in tk-ts 13 cells to IC50 for displacement of [125I]-amylin from rat AMY3R (CTR+RAMP3) expressed in BHK-13 cells; format: cell-based
Rattus norvegicus [27] = test: Reduction in food intake in Sprague-Dawley rat at 30 nmol/kg, sc administered as single dose measured upto 24 hrs relative to control; format: functional; design: scale not given: the % may be the effect or the level left; conditions: time hrs <=24
Rattus norvegicus [28] = test: Reduction in food intake in Sprague-Dawley rat at 30 nmol/kg, sc administered as single dose measured after 24 to 48 hrs relative to control; format: functional; design: scale not given: the % may be the effect or the level left; conditions: time 24-48 hrs

## CC[C@H](C)[C@H](NC(=O)[C@@H]1CCCN1C(=O)CNC(=O)[C@H](Cc1ccccc1)NC(=O)[C@H](CC(N)=O)NC(=O)[C@H](CC(N)=O)NC(=O)[C@H](CO)NC(=O)[C@H](CO)NC(=O)[C@H](Cc1c[nH]cn1)NC(=O)[C@H](Cc1cnc[nH]1)NC(=O)[C@H](CC(C)C)NC(=O)[C@H](Cc1ccccc1)NC(=O)[C@H](CCC(=O)O)NC(=O)[C@H](C)NC(=O)[C@H](CC(C)C)NC(=O)[C@H](CCCNC(=N)N)NC(=O)[C@H](CCC(N)=O)NC(=O)[C@@H](NC(=O)[C@H](C)NC(=O)[C@@H]1CSSC[C@H](NC(=O)[C@H](CCCCN)NC(=O)CC[C@H](NC(=O)CC[C@H](NC(=O)CCCCCCCCCCCCCCCCCCC(=O)O)C(=O)O)C(=O)O)C(=O)N[C@@H](CC(N)=O)C(=O)N[C@@H]([C@@H](C)O)C(=O)N[C@@H](C)C(=O)N[C@@H]([C@@H](C)O)C(=O)N1)[C@@H](C)O)C(=O)N[C@@H](CC(C)C)C(=O)N1CCC[C@H]1C(=O)N1CCC[C@H]1C(=O)N[C@H](C(=O)N[C@@H](CC(N)=O)C(=O)N[C@H](C(=O)NCC(=O)N[C@@H](CO)C(=O)N[C@@H](Cc1cnc[nH]1)C(=O)N[C@H](C(=O)N[C@@H](Cc1ccc(O)cc1)C(N)=O)[C@@H](C)O)C(C)C)[C@@H](C)O ({C20 diacid-γGlu-γGlu}-KCNTATCATQRLAEFLHHSSNNFGPILPPTNVGSHTY-NH2; disulfide 2-7)
[1]
  EC50: 0.297 nM
[2]
  EC50: 0.347 nM
Homo sapiens [3]
  Ratio EC50: 1
[4]
  EC50: 0.623 nM
[5]
  EC50: 4.97 nM
Rattus norvegicus [6]
  Ratio EC50: 8
[7]
  solubility: 200 µM (≈ 922 µg/mL)
[8]
  solubility: 200 µM (≈ 922 µg/mL)
[9]
  solubility: 200 µM (≈ 922 µg/mL)
[10]
  solubility: 200 µM (≈ 922 µg/mL)
[11]
  solubility: 200 µM (≈ 922 µg/mL)
[12]
  solubility: 200 µM (≈ 922 µg/mL)
[13]
  solubility: 200 µM (≈ 922 µg/mL)
[14]
  solubility: 200 µM (≈ 922 µg/mL)
Insulin (Homo sapiens) [15]
  TIME: 16 h
Insulin (Homo sapiens) [16]
  Activity: 35%
Insulin (Homo sapiens) [17]
  TIME: 4 h
Rattus norvegicus [18]
  Activity: 46%
Rattus norvegicus [19]
  Activity: 21%

## CC[C@H](C)[C@H](NC(=O)[C@@H]1CCCN1C(=O)CNC(=O)[C@H](Cc1ccccc1)NC(=O)[C@H](CO)NC(=O)[C@H](CO)NC(=O)[C@H](CO)NC(=O)[C@H](CO)NC(=O)[C@H](CCCNC(=N)N)NC(=O)[C@H](Cc1cnc[nH]1)NC(=O)[C@H](CC(C)C)NC(=O)[C@H](Cc1ccccc1)NC(=O)[C@H](CCC(=O)O)NC(=O)[C@H](C)NC(=O)[C@H](CC(C)C)NC(=O)[C@H](CCCNC(=N)N)NC(=O)[C@H](CCC(N)=O)NC(=O)[C@@H](NC(=O)[C@H](C)NC(=O)[C@@H]1CSSC[C@H](NC(=O)[C@H](Cc2cnc[nH]2)NC(=O)CC[C@H](NC(=O)CCCCCCCCCCCCCCCCCCC(=O)O)C(=O)O)C(=O)N[C@@H](CC(N)=O)C(=O)N[C@@H]([C@@H](C)O)C(=O)N[C@@H](C)C(=O)N[C@@H]([C@@H](C)O)C(=O)N1)[C@@H](C)O)C(=O)N[C@@H](CC(C)C)C(=O)N1CCC[C@H]1C(=O)N1CCC[C@H]1C(=O)N[C@H](C(=O)N[C@@H](CC(=O)O)C(=O)N[C@H](C(=O)NCC(=O)N[C@@H](CO)C(=O)N[C@@H](CC(=O)O)C(=O)N[C@H](C(=O)N[C@@H](Cc1ccc(O)cc1)C(N)=O)[C@@H](C)O)C(C)C)[C@@H](C)O ({C20 diacid-γGlu}-HCNTATCATQRLAEFLHRSSSSFGPILPPTDVGSDTY-NH2; disulfide 2-7)
[1]
  EC50: 0.166 nM
[2]
  EC50: 0.18 nM
Homo sapiens [3]
  Ratio EC50: 1
[4]
  EC50: 0.278 nM
[5]
  EC50: 1.58 nM
Rattus norvegicus [6]
  Ratio EC50: 6
[7]
  solubility: 200 µM (≈ 886 µg/mL)
[9]
  solubility: 5 µM (≈ 22.2 µg/mL)
[10]
  solubility: 200 µM (≈ 886 µg/mL)
[11]
  solubility: 200 µM (≈ 886 µg/mL)
[12]
  solubility: 200 µM (≈ 886 µg/mL)
[13]
  solubility: 200 µM (≈ 886 µg/mL)
[14]
  solubility: 200 µM (≈ 886 µg/mL)
Insulin (Homo sapiens) [15]
  TIME: 45 h
Insulin (Homo sapiens) [16]
  Activity: 57%
Insulin (Homo sapiens) [17]
  TIME: 45 h
Insulin (Homo sapiens) [20]
  Activity: 94%

## CC[C@H](C)[C@H](NC(=O)[C@@H]1CCCN1C(=O)CNC(=O)[C@H](Cc1ccccc1)NC(=O)[C@H](CC(N)=O)NC(=O)[C@H](CC(N)=O)NC(=O)[C@H](CO)NC(=O)[C@H](CO)NC(=O)[C@H](CCC(=O)O)NC(=O)[C@H](Cc1cnc[nH]1)NC(=O)[C@H](CC(C)C)NC(=O)[C@H](Cc1ccccc1)NC(=O)[C@H](CCC(=O)O)NC(=O)[C@H](C)NC(=O)[C@H](CC(C)C)NC(=O)[C@H](CCCNC(=N)N)NC(=O)[C@H](CCC(N)=O)NC(=O)[C@@H](NC(=O)[C@H](C)NC(=O)[C@@H]1CSSC[C@H](NC(=O)[C@H](Cc2cnc[nH]2)NC(=O)CC[C@H](NC(=O)CCCCCCCCCCCCCCCCCCC(=O)O)C(=O)O)C(=O)N[C@@H](CC(N)=O)C(=O)N[C@@H]([C@@H](C)O)C(=O)N[C@@H](C)C(=O)N[C@@H]([C@@H](C)O)C(=O)N1)[C@@H](C)O)C(=O)N[C@@H](CC(C)C)C(=O)N1CCC[C@H]1C(=O)N1CCC[C@H]1C(=O)N[C@H](C(=O)N[C@@H](CC(N)=O)C(=O)N[C@H](C(=O)NCC(=O)N[C@@H](CO)C(=O)N[C@@H](CC(N)=O)C(=O)N[C@H](C(=O)N[C@@H](Cc1ccc(O)cc1)C(N)=O)[C@@H](C)O)C(C)C)[C@@H](C)O ({C20 diacid-γGlu}-HCNTATCATQRLAEFLHESSNNFGPILPPTNVGSNTY-NH2; disulfide 2-7)
[1]
  EC50: 0.083 nM
[2]
  EC50: 0.128 nM
Homo sapiens [3]
  Ratio EC50: 2
[4]
  EC50: 0.063 nM
[5]
  EC50: 0.355 nM
Rattus norvegicus [6]
  Ratio EC50: 6
[21]
  IC50: 0.137 nM
[22]
  IC50: 1.75 nM
Homo sapiens [23]
  Ratio IC50: 13
[24]
  IC50: 0.034 nM
[25]
  IC50: 0.812 nM
Rattus norvegicus [26]
  Ratio IC50: 24
[7]
  solubility: 200 µM (≈ 891 µg/mL)
[8]
  solubility: 200 µM (≈ 891 µg/mL)
[9]
  solubility: 200 µM (≈ 891 µg/mL)
[10]
  solubility: 52 µM (≈ 232 µg/mL)
[11]
  solubility: 16 µM (≈ 71.3 µg/mL)
[12]
  solubility: 15 µM (≈ 66.9 µg/mL)
[13]
  solubility: 58 µM (≈ 259 µg/mL)
[14]
  solubility: 138 µM (≈ 615 µg/mL)
Insulin (Homo sapiens) [15]
  TIME: 11 h
Insulin (Homo sapiens) [16]
  Activity: 0%
Rattus norvegicus [27]
  Activity: 93%
Rattus norvegicus [28]
  Activity: 92%
Rattus norvegicus [18]
  Activity: 50%
Rattus norvegicus [19]
  Activity: 45%
